Measured values as given in PMC9229294, “Pyridazinones and Structurally Related Derivatives with Anti-Inflammatory Activity” (Molecules, 2022).
Like-named read-outs stand apart in the source and are kept apart here.

Assays:
[1] = Cytotoxicity, CellTiter-Glo, THP1-Blue cells; format: cell-based, human; conditions: human, THP1-Blue cells
Experimental: (§1) Our studies included 175 compounds that were previously synthesized and characterized at NEUROFARBA, Pharmaceutical and Nutraceutical Section, University of Florence, Italy. We previously evaluated the FPR1/FPR2 agonist activity of these compounds by evaluating their ability to induce Ca^2+ mobilization in FPR-transfected HL60 cells and human neutrophils. […] All test compounds were dissolved in DMSO at stock concentrations of 10 mM and stored at −20 °C. For primary screening assays (analysis of NF-κB activation, IL-6 production, and cytotoxicity), the following final concentrations of the compounds were used: 3.125, 6.25, 12.5, 25, and 50 µM; the final concentration of DMSO was 1% in all samples.
(§2) The cytotoxicity was analyzed with a CellTiter-Glo Luminescent Cell Viability Assay Kit from Promega (Madison, WI, USA), according to the manufacturer’s protocol. The luminescent ATP assays are based on a luciferase enzymatic reaction which uses ATP from viable cells to generate photons. For this assay, the cells were incubated with the compounds under investigation for 24 h. After treatment, the cells were equilibrated to room temperature for 30 min, luciferase + luciferin substrate was added, and the samples were analyzed with a Fluoroscan Ascent FL (Thermo Fisher Scientific, Waltham, MA, USA). The IC50 values were calculated by plotting the percentage inhibition against the logarithm of the inhibitor concentration (at least five points).

[2] = tested on: LPS-induced NF-κB activity in THP1-Blue cells; test: Inhibition of LPS-induced NF-κB transcriptional activity, alkaline phosphatase reporter, THP1-Blue cells; format: cell-based, human; conditions: for IC50: LPS-induced NF-κB activity, human THP1-Blue cells, N.A. = no activity at 50 µM; for Inhibition of LPS-induced NF-κB activity (in words): THP1-Blue cells, 250 ng/mL LPS, 24 h; for Observed class for inhibition of NF-κB activity: experimentally observed, Active or N.A.
Experimental: as §1
The activation of NF-κB was measured using an alkaline phosphatase reporter assay in human monocytic THP1-Blue cells stably transfected with a secreted embryonic alkaline phosphatase gene that is under the control of a promoter inducible by the NF-κB. The THP1-Blue cells (2 × 10^5 cells/well) were pretreated with the test compound or DMSO for 30 min, followed by an addition of 250 ng/mL LPS for 24 h. Alkaline phosphatase activity was determined in cell supernatants using a QUANTI-Blue mix (InvivoGen) and measured at 655 nm and compared with positive control samples (LPS).

[3] = tested on: rats with CFA-induced inflammatory arthritis; set-up: method as in PMID 32388428; conditions: cited from earlier work
[4] = Cytotoxicity, CellTiter-Glo, MonoMac-6 cells; format: cell-based, human; conditions: human, MonoMac-6 cells
Experimental: as §1, §2

FPR1 = biological target: T1, FPR1 (Homo sapiens, UniProt P21462); conditions: FPR1-transfected HL-60 cells, read-out: Ca2+ Mobilization FPR1 EC50 in HL-60 Cells, cited from earlier work
T1 construct: expressed in transfected cells; host or cells: HL-60 cells (FPR1-HL60)
T1 sequence (P21462 1-350): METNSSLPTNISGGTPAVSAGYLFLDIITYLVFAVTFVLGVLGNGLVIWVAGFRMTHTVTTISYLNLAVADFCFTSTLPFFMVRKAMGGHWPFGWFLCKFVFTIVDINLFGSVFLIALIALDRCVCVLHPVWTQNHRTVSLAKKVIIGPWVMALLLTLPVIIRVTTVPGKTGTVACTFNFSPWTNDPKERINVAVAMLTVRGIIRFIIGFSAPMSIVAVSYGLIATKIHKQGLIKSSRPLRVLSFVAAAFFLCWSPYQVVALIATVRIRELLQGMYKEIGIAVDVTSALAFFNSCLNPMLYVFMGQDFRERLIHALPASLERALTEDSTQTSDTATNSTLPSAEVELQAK

FPR2 = biological target: T2, FPR2 (Homo sapiens, UniProt P25090); conditions: FPR2-transfected HL-60 cells, read-out: Ca2+ Mobilization FPR2 EC50 in HL-60 Cells, cited from earlier work
T2 construct: expressed in transfected cells; host or cells: HL-60 cells (FPR2-HL60)
T2 sequence (P25090 1-351): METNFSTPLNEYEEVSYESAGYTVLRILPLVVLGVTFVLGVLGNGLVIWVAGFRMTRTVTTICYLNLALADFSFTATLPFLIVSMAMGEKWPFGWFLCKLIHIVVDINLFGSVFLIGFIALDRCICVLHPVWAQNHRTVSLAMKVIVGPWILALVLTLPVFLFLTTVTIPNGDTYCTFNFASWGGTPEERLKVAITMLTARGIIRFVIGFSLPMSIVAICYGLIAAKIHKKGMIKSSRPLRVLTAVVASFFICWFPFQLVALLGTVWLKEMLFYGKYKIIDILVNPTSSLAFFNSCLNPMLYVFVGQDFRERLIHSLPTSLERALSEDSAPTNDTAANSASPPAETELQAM

[5] = tested on: LPS-induced IL-6 production in MonoMac-6 cells; test: Inhibition of LPS-induced IL-6 production in MonoMac-6 cells (ELISA); format: cell-based, human; conditions: for IC50: Homo sapiens
Experimental: as §1
A human IL-6 ELISA kit (BD Biosciences, San Jose, CA, USA) was used to measure IL-6 production. […] The cells were pretreated with the test compound or DMSO for 30 min, followed by addition of 250 ng/mL LPS for 24 h. The IC50 values for IL-6 production were calculated by plotting the percentage inhibition against the logarithm of the inhibitor concentration (at least five points).

THP1-Blue cells = test: Cytotoxicity, CellTiter-Glo, THP1-Blue cells; format: cell-based, human; conditions: for Cytotoxicity in THP1-Blue Cells (FPR peptide agonists): peptides tested at 5 nM, N.T. = no cytotoxicity
Experimental: as §1, §2

[6] = N.T. = no cytotoxicity at 50 µM, read-out: Cytotoxicity IC50 in THP1-Blue Cells
[7] = Table 3, as reported previously (see Table 1)
[8] = MONO-MAC-6, read-out: Inhibition of IL-6 Production IC50 in MonoMac-6 Cells
[9] = MONO-MAC-6, 24 h, read-out: IC50, LPS-induced IL-6 production

COc1cccc(Cc2c(C)c(C)nn(CC(=O)Nc3ccc(Br)cc3)c2=O)c1 [Compound 69]
IC50 at 24 h [1, 6]: > 50 µM
IC50 ([2]; Homo sapiens): 34.5 ± 2.6 µM
Inhibition of LPS-induced NF-κB activity (in words) [2]: inhibited
Observed class for inhibition of NF-κB activity [2]: Active
Pain hypersensitivity [3]: reduce pain hypersensitivity

COc1cccc(Nc2c(C(C)=O)c(C)nn(CC(=O)Nc3ccc(Br)cc3)c2=O)c1 [Compound 73]
Inhibition of LPS-induced NF-κB activity (in words) [2]: inactive
Pain hypersensitivity [3]: reduce pain hypersensitivity

CC[C@@H](C(=O)Nc1ccc(Br)cc1)n1nc(C)cc(Cc2cccc(OC)c2)c1=O [Compound 95]
IC50 at 24 h [4]: > 50 µM
EC50 (FPR1; agonist activity from Table 1): 13.4 µM
EC50 (FPR1; [7]): 13.4 µM
EC50 (FPR2; agonist activity from Table 1): 22.2 µM
EC50 (FPR2; [7]): 22.2 µM
IC50 at 24 h [1, 6]: > 50 µM
IC50 ([2]; Homo sapiens): 12.1 ± 2.4 µM
IC50 [5, 8]: 9.8 ± 1 µM

CCC[C@H](C(=O)Nc1ccc(Br)cc1)n1nc(C)cc(Cc2cccc(OC)c2)c1=O [Compound 98]
IC50 at 24 h [4]: > 50 µM
EC50 (FPR1; agonist activity from Table 1): 3 µM
EC50 (FPR1; [7]): 3 µM
EC50 (FPR2; agonist activity from Table 1): 0.84 µM
EC50 (FPR2; [7]): 0.84 µM
IC50 at 24 h [1, 6]: > 50 µM
IC50 ([2]; Homo sapiens): 10.6 ± 2.3 µM
IC50 [5, 8]: 5.6 ± 0.3 µM

CC[C@](C)(C(=O)Nc1ccc(Br)cc1)n1nc(C)cc(Cc2cccc(OC)c2)c1=O [Compound 102]
IC50 at 24 h [4]: > 50 µM
EC50 (FPR1; agonist activity from Table 1): 4.5 µM
EC50 (FPR1; [7]): 4.5 µM
EC50 (FPR2; agonist activity from Table 1): 13.7 µM
EC50 (FPR2; [7]): 13.7 µM
IC50 at 24 h [1, 6]: > 50 µM
IC50 ([2]; Homo sapiens): 22.1 ± 1.6 µM
IC50 [5, 8]: 19 ± 3.1 µM

CC[C@@](C)(C(=O)Nc1ccc(Br)cc1)n1nc(C)cc(Cc2cccc(OC)c2)c1=O [Compound 103]
IC50 at 24 h [4]: > 50 µM
EC50 (FPR1; agonist activity from Table 1): 7 µM
EC50 (FPR1; [7]): 7 µM
EC50 (FPR2; agonist activity from Table 1): > 50 µM
EC50 (FPR2; [7]): > 50 µM
IC50 at 24 h [1, 6]: > 50 µM
IC50 ([2]; Homo sapiens): 16.6 ± 0.6 µM
IC50 [5, 8]: 7.3 ± 1.2 µM

CC1CC(c2ccccc2)=NN(CC(=O)Nc2ccc(Br)cc2)C1=O (stereo not shown) [Compound 125]
IC50 at 24 h [4]: > 50 µM
EC50 (FPR1; agonist activity from Table 1): 24.4 µM
EC50 (FPR1; [7]): 24.4 µM
EC50 (FPR2; agonist activity from Table 1): 10 µM
EC50 (FPR2; [7]): 10 µM
IC50 (THP1-Blue cells; THP1-Blue cells, N.T. = no cytotoxicity at 50 µM): > 50 µM
IC50 [2]: 22.4 ± 0.7 µM
IC50 [5, 8]: 7.2 ± 0.03 µM

COc1cccc(-n2ccc(=O)n(CC(=O)Nc3ccc(Br)cc3)c2=O)c1 [Compound 150]
IC50 at 24 h [4]: > 50 µM
EC50 (FPR1; [7]): 4.3 µM
EC50 (FPR2; agonist activity from Table 1): 3.6 µM
IC50 at 24 h [1, 6]: > 50 µM
IC50 ([2]; Homo sapiens): 21.4 ± 3.5 µM
Observed class for inhibition of NF-κB activity [2]: Active
IC50 [5, 9]: < 10 µM
IC50 [5, 8]: 4 ± 1.2 µM

O=C(Cn1c(=O)ccn(-c2ccccc2)c1=O)Nc1ccc(Br)cc1 [Compound 153]
IC50 at 24 h [4]: > 50 µM
EC50 (FPR1; agonist activity from Table 1): 12.5 µM
EC50 (FPR2; [7]): 8.9 µM
IC50 at 24 h [1, 6]: > 50 µM
IC50 ([2]; Homo sapiens): 20.8 ± 0.5 µM
Observed class for inhibition of NF-κB activity [2]: Active
IC50 [5, 9]: < 10 µM
IC50 [5, 8]: 10.7 ± 0.1 µM

CCCn1cc(-c2cccc(OC)c2)c(=O)n(CC(=O)Nc2ccc(Br)cc2)c1=O [Compound 154]
IC50 at 24 h [4]: > 50 µM
EC50 (FPR1; agonist activity from Table 1): 3.3 µM
EC50 (FPR2; agonist activity from Table 1): 2.4 µM
IC50 at 24 h [1, 6]: > 50 µM
IC50 ([2]; Homo sapiens): 25.6 ± 2.3 µM
Observed class for inhibition of NF-κB activity [2]: Active
IC50 [5, 8]: 2.6 ± 0.3 µM

COc1cccc(Nc2c(C)c(-c3ccccc3)nn2CC(=O)Nc2ccc(Br)cc2)c1 [Compound 158]
EC50 (FPR1; agonist activity from Table 1): > 50 µM
EC50 (FPR2; agonist activity from Table 1): > 50 µM
IC50 at 24 h ([1]; 24 h, read-out: Cytotoxicity IC50): 22 to 26 µM
IC50 at 24 h [1, 6]: 22.4 ± 5.2 µM
Cytotoxicity in THP1-Blue cells (in words) (THP1-Blue cells; 24 h): cytotoxic
IC50 ([2]; Homo sapiens): 8.8 ± 1.1 µM
Observed class for inhibition of NF-κB activity [2]: Active

O=C(Cn1c(-c2ccc([N+](=O)[O-])cc2)csc1=O)Nc1ccc(Br)cc1 [Compound 169]
IC50 at 24 h [4]: > 50 µM
EC50 (FPR1; [7]): 9.1 µM
EC50 (FPR2; agonist activity from Table 1): > 50 µM
EC50 (FPR2; [7]): > 50 µM
IC50 at 24 h [1, 6]: > 50 µM
IC50 ([2]; Homo sapiens): 19.2 ± 0.1 µM
Observed class for inhibition of NF-κB activity [2]: Active
IC50 [5, 8]: 3.2 ± 0.4 µM
Inhibition of LPS-induced IL-6 production (in words) ([5]; MonoMac-6 cells, 250 ng/mL LPS, 24 h): potent IL-6 inhibitors

CSCC[C@H](NC(=O)[C@@H](NC(=O)[C@H](CCSC)NC(=O)[C@H](Cc1ccc(O)cc1)NC(=O)[C@H](CCCCN)NC(=O)[C@@H](N)Cc1c[nH]c2ccccc12)C(C)C)C(=O)O [WKYMVM, Trp-Lys-Tyr-Met-Val-Met, reference compound]
Cytotoxicity in THP1-Blue Cells (FPR peptide agonists) (THP1-Blue cells; THP1-Blue cells): N.T. (No cytotoxicity was observed at the highest concentration tested (50 µM))

CSCC[C@H](NC=O)C(=O)N[C@@H](CC(C)C)C(=O)N[C@@H](Cc1ccccc1)C(=O)O [f MLF]
Cytotoxicity in THP1-Blue Cells (FPR peptide agonists) (THP1-Blue cells; THP1-Blue cells): N.T. (No cytotoxicity was observed at the highest concentration tested (50 µM))
